Experimental data from US20210106703A1, “RADIOIMMUNOCONJUGATES IN COMBINATION WITH OTHER DRUGS AS TREATMENT AGAINST NHL” (Nordic Nanovector ASA, priority 2017, published 2021).

Key:
DOHH2 cells = assay: Cell cycle analysis (PI, Muse flow cytometer); assay type: cell-based, human
Procedure: (§1) Cells were harvested at day 0, 2 h, 18 h, 1 d, 2 d, 3 d, of RIT then fixed in 70% ethanol at −20° C. for 3 hours and stained with Cell Cycle kit (with PI) reagent from Merck Millipore in the dark for 30 min at room temperature before analysis using a Muse® flow cytometer. The percentage of cells in G0/G1, S and G2/M phases was then calculated (mean of three experiments in triplicate).
(§2) At different times after start of incubation, proteins were extracted to measure the CDK1 phosphorylation levels, in parallel, proliferation was determined and at 18 h and 24 h after start of incubation, the percentage of cells in G2/M was assessed (experiments were performed three time except the cell cycle analysis).
(§3) Cells were harvested at 0 h, 2 h, 18 h, 1 d, 2 d, 3 d, and fixed in 70% ethanol at −20° C. for at least 3 h. After staining with the Muse® Cell Cycle Assay Kit (Merck Millipore, Molsheim, France) using propidium iodide in the dark at room temperature for 30 min, cell cycle distribution was analyzed using a Muse® flow cytometer. The percentage of cells in the G0/G1, S and G2/M was calculated (mean of three experiments in triplicate) and the effect of WEE-1 and MYT-1 kinase inhibitors on the cell cycle was assessed.

Rec-1 cells = assay: Cell cycle analysis (PI, Muse flow cytometer); assay type: cell-based, human
Procedure: as §1, §2, §3

Ramos cells = assay: Cell cycle analysis (PI, Muse flow cytometer); assay type: cell-based, human
Procedure: as §1, §2, §3

OCI-Ly8 tumor xenografts = assay: Treatment of mice with tumor xenografts
U-2932 cells = assay: Real Time Glo viability screen and validation, Betalutin with PARP or cell cycle kinase inhibitors (Examples 4, 7); assay type: cell-based, human
Procedure: (§4) DLBCL cell lines U2932 and RIVA were maintained in RPMI 1640-GlutaMAX medium (Gibco) supplemented with 15% fetal bovine serum (Biowest) and 1% penicillin-streptomycin (Gibco) at 37° C. in a humidified atmosphere containing 5% CO2. Cells were split twice a week 1:7 and diluted 2-4 days before start of the experiment, to ensure they are in exponential growth at the beginning of the experiment.
(§5) Cells were treated in 6-well plates without shaking for 18 h with Betalutin at a final concentration of 1 μg/ml for U2932 and 0.5 μg/ml for RIVA. After treatment, PBS was added to the cells, and the cells pelleted. Cells were first resuspended in 1 ml PBS, then washed twice in PBS and finally diluted in growth medium to a final concentration of 2.5*10^6 cells/ml.
(§6) Cells density measurements were performed the day before seeding. Based on these measurements cells were seeded in 384-well plates at a density of 3000 cells per well in a culturing volume of 25 μl (resulting in start titers: 120 000 cells/ml) using a robot. For measuring viability using Real Time Glo (Promega, WI, USA), the Cell Viability Substrate and NanoLuc® Enzyme were diluted 1:500 in growth medium, and 25 μL of diluted reagents dispensed in each well by a robot. All reagents were equilibrated to 37° C. Cells were incubated with the reaction mix for 1 h at 37° C. before the first measurement of luminescence. Measurements were repeated as often as required within 72 h after adding the reagents. A Tecan SPARK 10M plate reader (Tecan, SUI) was used to measure luminescence, with the integration time set to 1 sec.
(§7) The screen was performed in 384-well plate with selected PARP inhibitors (stock solutions 10 mM in DMSO) acquired from SelleckChem (Selleckchem, TX, USA). To include no-drug controls, the drug panel (Table 6) was divided on two plates. Due to previous observations of cells growing poorly in wells located at the edges of the plates, the two outer most rows and columns were not used. As previously mentioned three different drug concentrations were used in the screen, 10 nM and 1 μM for U2932 and 10 and 100 nM for RIVA.
(§8) Candidate hits were identified using the Bliss Independence test for synergy. The effect of each drug alone at each concentration was calculated as the fraction of dead cells as compared to control cells Fa=(1−(RLUdrug/avgRLUcontrol), a similar calculation was performed for the effect of Betalutin alone Fb=(1−(avgRLUBetalutin/avgRLUcontrol). Through the following equation we found the expected additive effect of the combination of drug+Betalutin: Expected effect (E)Fab=(Fa+Fb−Fa*Fb). We subtracted this expected effect from the measured effect (M)Fab=(1−(RLUDrug+Betalutin/avgRLUcontrol) to get a value (Diff)Fab representing how the measured effect differed from the expected additive effect of the combination. This value was normalized to the survival fraction of drug alone: (Diff)Fab#=(Diff)Fab/(1−Fa). Furthermore, to get a measure of how big the well-to-well variation was, we calculated the standard deviation for the effect of Betalutin alone in the 48 control wells on each plate: (STDEV)Fb=(RLUBetalutin/RLUcontrol)−(averageRLUBetalutin/averageRLUcontrol). Drugs with a value (Diff)Fab#two times higher than the standard deviation of Betalutin treated controls, (STDEV)Fb, were scored as hits.
as §6, with “Measurements were repeated as often as required within 72 h after adding the reagents. A Tecan SPARK 10M plate reader (Tecan, SUI) was used to measure luminescence, with the integration time set to 1 sec.” left out

RIVA cells = assay: Real Time Glo viability screen, Betalutin with PARP or cell cycle kinase inhibitors (Examples 4, 7); assay type: cell-based, human; settings: RIVA
Procedure: as §4, §5, §6, §7, §8
as §6, with “Measurements were repeated as often as required within 72 h after adding the reagents. A Tecan SPARK 10M plate reader (Tecan, SUI) was used to measure luminescence, with the integration time set to 1 sec.” left out

C=CCn1c(=O)c2cnc(Nc3ccc(N4CCN(C)CC4)cc3)nc2n1-c1cccc(C(C)(C)O)n1 [MK-1775]
Proportion of cells in G2/M, inhibitor combined with ^177Lu-lilotomab (DOHH2 cells; DOHH2, 1 μM inhibitor + ^177Lu-lilotomab, versus ^177Lu-lilotomab alone or untreated): reduction of the fraction of G2/M cells
Proportion of cells in G2/M, inhibitor combined with ^177Lu-lilotomab (Rec-1 cells; Rec-1, 1 μM inhibitor + ^177Lu-lilotomab, versus ^177Lu-lilotomab alone or untreated): reduction of the fraction of G2/M cells
Proportion of cells in G2/M, inhibitor combined with ^177Lu-lilotomab (Ramos cells; 1 μM inhibitor + ^177Lu-lilotomab, versus ^177Lu-lilotomab alone or untreated): reduction of the fraction of G2/M cells
Tumor growth delay versus ^177Lu-lilotomab alone (OCI-Ly8 tumor xenografts; 250 MBq/kg ^177Lu-lilotomab + MK-1775, p=0.05): significantly better
Efficacy of combination versus 500 MBq/kg ^177Lu-lilotomab alone (OCI-Ly8 tumor xenografts; 250 MBq/kg ^177Lu-lilotomab + MK-1775, p=0.7070): as efficient as 500 MBq/kg
Therapeutic efficacy compared with control (OCI-Ly8 tumor xenografts; single agent): no therapeutic efficacy

Nc1nc(Nc2ccc(S(N)(=O)=O)cc2)nn1C(=O)c1c(F)cccc1F [JNJ-7706621]
inhibition at 1 µM (U-2932 cells; Homo sapiens, U2932, 120 h, U-2932, drug 1 μM, five days into treatment, read-out: Growth inhibition, drug alone): ~40%
inhibition at 0.64 µM (U-2932 cells; Homo sapiens, U2932, U-2932, drug 640 nM, read-out: Growth inhibition, drug with Betalutin pre-treatment): ~80%
Growth inhibitory effect, drug alone (U-2932 cells; U-2932, drug 10 nM): no growth inhibitory effect
Combined growth inhibition with Betalutin pre-treatment (U-2932 cells; U-2932, drug 1 μM + Betalutin): more than 60%
Synergy by combination index (U-2932 cells; U-2932, drug 80-1280 nM with 0.5, 1 or 2 μg/ml Betalutin, day 5): Synergy was found for all tested combinations
Synergy by combination index, confirmation experiments (U-2932 cells; U-2932, drug 100-5000 nM with Betalutin 0.5-5 μg/ml, day 5): observed for all but two combinations
Growth impairment, drug alone (U-2932 cells; U-2932, highest tested dose 1280 nM): 30%
BLISS analysis, combination with Betalutin versus expected additive effect (U-2932 cells; U-2932, significant = more than twice the SD of Betalutin alone): significantly greater than the expected additive effect
Growth inhibitory effect, drug alone (RIVA cells; drug 100 nM): no growth inhibitory effect

B1: Lutetium-177 [^177Lu]-lilotomab satetraxetan (conjugate, chains of the INN, looked up)
VH: EIQLQQSGPELVKPGASVKVSCKASGYSFTDYNMYWVKQSHGKSLEWIGYIDPYNGDTTYNQKFKGKATLTVDKSSSTAFIHLNSLTSEDSAVYYCARSPYGHYAMDYWGQGTSVTVSS
VL: DIVMTQSHKLLSTSVGDRVSITCKASQDVSTAVDWYQQKPGQSPKLLINWASTRHTGVPDRFTGSGSGTDYTLTISSMQAEDLALYYCRQHYSTPFTFGSGTKLEIK
modifications: 177Lu satetraxetan chelator conjugate
Proliferation relative to non-treated cells (U-2932 cells; U-2932, 1 μg/ml [600 MBq/mg]): more than 80%
Inhibition of proliferation capacity, single treatment (U-2932 cells; U-2932, Betalutin 1 μg/ml, days 5 and 6): less than 10%
Proliferation potential compared to untreated cells (U-2932 cells; U-2932, validation screen, highest Betalutin dose (2 μg/ml)): about 70%
Proliferation relative to non-treated cells (RIVA cells; 0.5 μg/ml [600 MBq/mg], days 4-6): more than 40%
Inhibition of proliferation capacity, single treatment (RIVA cells; Betalutin 0.5 μg/ml, days 5 and 6): about 50%
Proportion of cells showing a G2/M cell cycle arrest (DOHH2 cells; DOHH2, 6 MBq/mL, at 24 h): 45±11%
Proportion of cells showing a G2/M cell cycle arrest (Rec-1 cells; Rec-1, 6 MBq/mL, at 24 h): 44±11%
Proportion of cells showing a G2/M cell cycle arrest (Ramos cells; 6 MBq/mL, at 24 h): 64±16%
Median survival (OCI-Ly8 tumor xenografts; 250 MBq/kg, p=0.0062): significantly improved
Tumor growth delay (OCI-Ly8 tumor xenografts; 250 MBq/kg, p=0.015): significantly improved
